Data on two compounds can be found in article PMC10923054, “Antiplasmodial peptaibols act through membrane directed mechanisms” (Cell Chemical Biology, 2024).

One may read the EC50 as the concentration at which the effect is half-maximal. What is called IC50 is the concentration that gives 50% inhibition.

Read-outs that look alike come from different tables or passages of the source. Square brackets hold non-standard residues; d marks the D form. Peptide text beside a SMILES is read from it. Phe(ol) = N[C@H](CO)Cc1ccccc1; Leu(ol) = CC(C)C[C@H](N)CO; dIva = CC[C@@](C)(N)C(=O)O; Aib = CC(C)(N)C(=O)O

Test [1] relates to P. falciparum Dd2. Kind of test: Phenotypic screen: asexual blood stage EC50 determination (SYBR Green I). The test is classed as cell-based. To be noted: asynchronous culture, 1% parasitemia, 1% hematocrit, 72 h, SYBR Green I; mean ± SEM, biological triplicate. Here is the method:
Asexual blood stage parasites grown in the Chakrabarti laboratory were cultured based on a protocol by Trager and Jensen[57] with some modifications.[35] Culture was maintained at 4% hematocrit with human A+ whole blood obtained from the Florida OneBlood, in RPMI 1640 supplemented with 25 mM HEPES pH 7.4, 26 mM NaHCO3, 2% dextrose, 15 mg/L hypoxanthine, 25 mg/L gentamycin, and 0.5% Albumax II. Incubator conditions remained at 37°C and 5% CO2, 5% O2, 90% N2, or 95% air. For comparison screening using serum vs Albumax II, culture media was changed from RPMI with 0.5% Albumax II to RPMI with 10% human serum and maintained for a minimum of 2 weeks prior to assay use.
Inhibitor EC50 determination in 3D7 and Dd2 was performed as discussed in,[35] based on established protocols.[60] Assays utilized asynchronous culture at 1% parasitemia, 1% hematocrit. Culture was incubated with compound dilutions for 72 h followed by freezing at −80°C to promote lysis, then thawing and incubation for 45 min–1 h with 1× SYBR Green I in a lysis buffer (20 mM Tris-HCL, 0.08% saponin, 5 mM EDTA, and 0.8% Triton X-100). Fluorescence was read 485 nm excitation, 530 nm emission on a Synergy Neo2 multimode reader (BioTek Winsooki, VT) and EC50 curves were generated using CDD Vault (https://www.collaborativedrug.com/).

Test [2] has as its system Attb. The test is classed as cell-based, P. falciparum. To be noted: Asexual Blood Stage DHODH; mean ± SEM of 3 biological replicates. Here is the method: (§1) Parasites grown in the Winzeler laboratory for screening and drug selections were maintained in RPMI 1640 medium supplemented with 0.25% Albumax I, 26 mM sodium bicarbonate, 0.1 mM hypoxanthine, and […] gentamicin. Human O+ whole blood obtained from the Blood Bank of The Scripps Research Institute was used for cultivation (human subjects IRB number: 125933). Blood-stage cultures were kept at 37°C with 5% CO2, 3% O2, and 92% N2. Monitoring of parasitemia and parasite morphology was performed using microscopic evaluation of thin blood smears that were first fixed with methanol, and then stained with Giemsa.
(§2) Cross resistance screening was performed with 0.3% parasitemia, 2.5% hematocrit, dispensed into 1536-well black, clear bottom plates with pre-spotted compound using a MultiFloTM Microplate dispenser (BioTek) at a volume of 8 μL/well. Plates where then incubated at 37°C for 72 h, after which 10× SYBR Green I (Invitrogen) in a lysis buffer (20 mM Tris/HCl, 5 mM EDTA, 0.16% (w/v) saponin, 1.6% (v/v) […]) was then added using a MultiFloTM Microplate dispenser (BioTek) at a volume of 2 μL/well. After 24 h incubation at room temperature, viability was measured via fluorescence using the EnVision® Multilabel Reader (PerkinElmer) (485 nm excitation, 530 nm emission). IC50 values were determined in CDD vault (https://www.collaborativedrug.com/).

Test [3] has as its system attb ScDHODH. The format is cell-based, P. falciparum. The following applies: Asexual Blood Stage DHODH; line expressing S. cerevisiae DHODH; mean ± SEM of 3 biological replicates. Here is the method:
as §1, §2

Test [4] relates to Dd2-B2. The test is classed as cell-based, P. falciparum. On the procedure: Screening of HZ NPDG-I resistant clones was performed at 1% parasitemia, 0.2% hematocrit with flow cytometry in V-shaped 96-well plates. Briefly, compounds were subjected to a 3-fold serial dilution with the highest concentration set at 4 μM or 8 μM. Eleven dilution points were included in addition to no-drug controls. Three technical replicates were set up for each compound at each dilution point. The Dd2-B2 parent line, or the clonal line 1B2, 2B3, 3A3, or 1E2 were added at 0.4% hematocrit and 1% parasitemia to the diluted compounds at a 1:1 ratio. The plate was incubated at 37°C for 72 h in a chamber filled with a hypoxic gas mixture (3% oxygen, 5% carbon dioxide, and 92% nitrogen). After incubation, a blood pellet was formed at the bottom of each well of the 96-well plate. Supernatant was removed without disturbing the pellet, and 20 μl of SYTO 61(1:10,000 dilution; Thermo Fisher Scientific, Cat No. S11343) in PBS was added to each well and incubated for 15 mins at room temperature. The cells in each well were then diluted with 180 μl of PBS and subjected to flow cytometry for parasitemia determination using the HTS (High-Throughput Sampler) of BD FACSCanto II (BD Biosciences, NJ). Flow cytometry data was analyzed using FlowJo Version 10.4.0. Dose response curves were generated and IC50 values obtained with GraphPad Prism Version 9.1.1.
A clone of the Dd2 strain (Dd2-B2) of P. falciparum was used for in vitro evolution of resistance against harzianin NPDG I. Three flasks of 1.2 x 10^8 parasites were continuously exposed to a stepwise-increasing concentration of the compound over ∼3 months starting from 20 nM up to a final concentration of 100 nM. Once a stable rightward shift in 72 h IC50 was observed, cultures were subjected to limiting dilution to obtained harzianin-resistant clones. Each clone was expanded, phenotyped to confirm resistance, and submitted for whole genome sequencing. An untreated flask of Dd2-B2 parasites was maintained in parallel throughout the course of in vitro selection as a control.

Take `CC(=O)NC(C)(C)C(=O)N1CCC[C@H]1C(=O)NC(C)(C)C(=O)N[C@@H](C)C(=O)NC(C)(C)C(=O)N[C@@H](C)C(=O)N[C@@H](CCC(N)=O)C(=O)NC(C)(C)C(=O)N[C@H](C(=O)NC(C)(C)C(=O)NCC(=O)N[C@@H](CC(C)C)C(=O)NC(C)(C)C(=O)N1CCC[C@H]1C(=O)N[C@H](C(=O)NC(C)(C)C(=O)NC(C)(C)C(=O)N[C@@H](CCC(=O)O)C(=O)N[C@@H](CCC(N)=O)C(=O)N[C@H](CO)Cc1ccccc1)C(C)C)C(C)C` [Alamethicin, reference compound] (Ac-[Aib]P[Aib]A[Aib]AQ[Aib]V[Aib]GL[Aib]PV[Aib][Aib]EQ[Phe(ol)]; N-terminus assumed): in test [1], the EC50 worked out at 630 ± 50 nM.

On to `CC[C@H](C)[C@H](NC(=O)[C@H](CC(C)C)NC(=O)[C@H](CCC(N)=O)NC(=O)[C@@](C)(CC)NC(C)=O)C(=O)NC(C)(C)C(=O)N1CCC[C@H]1C(=O)N[C@](C)(CC)C(=O)N[C@@H](CC(C)C)C(=O)NC(C)(C)C(=O)N1CCC[C@H]1C(=O)N[C@H](CO)CC(C)C` [HZ NPDG-I, harzianin NPDG I] (Ac-[dIva]QLI[Aib]P[dIva]L[Aib]P[Leu(ol)]), for which the results for the concentration giving a half-maximal response (EC50) in test [2] and in test [3] were 5.7 ± 2.3 nM and 9.1 ± 1.5 nM, respectively. In addition, the IC50 in test [4] (flask 1, read-out: IC50, Dd2-B2 parent) is 0.0536 nM; in test [4] (flask 2, read-out: IC50, Dd2-B2 parent), 0.0222 nM; in test [4] (flask 3, read-out: IC50, DD2-B2 parent) it was 0.0437 nM.
